This is an account of results in patent US4221909A, “P-Acetamidobenzoic acid salts of 9-(hydroxyalkyl) purines” (Sloan-Kettering Institute for Cancer Research, priority 1978, dated 1980).

Common to all, as to format: cell-based
Test [1] relates to Influenza A USSR/90(H1 N1). The experiment in a line: Anti-Influenza Activity (Hemadsorption Assay), Influenza A USSR/90. On the procedure:
Upon infection of a monolayer of tissue culture cells by influenza virus, the cell surface is altered so that guinea pig erythrocytes can be adsorbed to the cell surface. The number of foci of adsorbed cells (hemadsorption foci forming units HAFFU) is a quantitative measure of infectivity. The method is as follows.
The monolayers were subcultured in the following manner: The medium was poured off, and the monolayer washed two times with approximately 50 ml per wash of calcium and magnesium free phosphate buffered saline (PBS), (GIBCO #419) at a pH of 7.2. One ml of trypsin-EDTA solution (GIBCO #530L) containing 0.5 g trypsin (1:250) and 2.0 g EDTA/liter of Modified Puck's Saline A was added at 37° C. to each flask and dispersed over the monolayer with gentle shaking. The flasks were then placed in an incubator at 37° C. for approximately 3-5 minutes depending on the time required to dislodge the cells. Occasional shaking was required. Ten ml of planting medium was added to each flask and the cells dispersed by aspirating and expelling the suspension from the pipette. The contents of a series of flasks were pooled and the cells in the suspension were diluted with planting medium to 7-8.5×10^4 cells/ml. The planting medium consisted of the following composition: Minimum Essential Medium Eagles (MEM) with Earle's salts and HEPES buffer (GIBCO #236) supplemented by adding the following substances as specified to 87 ml of MEM:
The following day the medium was removed and replaced with fresh planting medium. The monolayers were used for experimentation when they reached a condition in which they were almost confluent (approximately 3-4 days).
When the Linbro tray HeLa cell cultures were ready for experimentation (see cells), the medium was decanted and 1 ml of maintenance medium (MEM with FCS reduced to 3%) containing the compound being tested at a given concentration was added to 4 replicate cultures within a tray.
A series of different drug concentrations ranging from 2.3 to 150 μg/ml were used. Maintenance medium alone was used for control cultures. After the administration of drug and control medium, 0.1 ml of the diluted viral suspension was added to experimental groups and infected control cultures. Saline alone was added to non-infected control cultures. The Linbro trays were then incubated at 37° C. for 18 hours, after which media in all groups was aspirated. Each culture was washed once with PBS. The saline was aspirated and 0.5 ml of a 0.4% v/v guinea pig red blood cell suspension in PBS was added to each culture well. The cultures remained at room temperature for 30 minutes after which the medium was decanted and culture washed […] with PBS to remove all but the specifically bound red cells. After the third wash, maintenance medium was added to all cultures.
A Howard Micrometer eyepiece (C8385) was inserted within the ocular of a Nikon inverted phase contrast microscope. Each culture was scanned with a 4× low paper objective and direct counts of hemadsorbed red cells were counted using the eyepiece grid as a field marker. Partial or complete fields were counted per experimental group depending on the resulting number and density of hemadsorbed cells in the infected control cultures. Magnification of 60× or 150× were chosen to obtain the best conditions for enumerating the hemadsorbed cells. Field factors were calculated for counting hemadsorption at 60× and 150×. At 60× magnification, total field count was calculated using a multiplication factor of 55.5. At 150× magnification the multiplication factor was 273. The multiplication factors of 55.5 and 273 represent the total number of fields at 60× and 150× magnifications, respectively. The number of fields counted ranged from 3 to 5 per well with 3 to 4 wells per treatment group employed (see raw data tables in results section for number of fields examined). Means and standard errors were calculated and the data was evaluated using student's t-test analysis.

In test [2] the test system is influenza virus. In words: Anti-influenza activity (summary).
In test [3] the test system is Mouse spleen cells. In words: Mitogen Induced (Con A) Mouse Lymphocyte Proliferation. An excerpt: (§1) The following three assay procedures are used to evaluate the ability of the test substances to modulate the activity of several classes of cells in the immune system. In these systems it is possible to identify both immunopotentiating activity (evidence by an enhancement of the parameter examined) as well as immunosuppressant activity (evidenced by an inhibition of the parameter examined).
1. Mitogen--Induced Mouse Spleen Cell Assay--Mouse spleen cells contain a population of both B and T lymphocytes which can be stimulated by a number of foreign substances (e.g., plant mitogens such as Con A) to proliferate. This enhanced proliferation is an indication of enhanced cell mediated immunity. The method below describes the system used to evaluate test substances as immunopotentiators.
Concanavalin A (Calbiochem, La Jolla, Calif.), Lot #210073, lyophilized in NaCl, was prepared first as a 1% solution and diluted as a 2× concentration for each dilution (0.5, 1.0, 2.5 μg/ml).
Six to eight week old male Balb/c and C3 H inbred mice were obtained from the following sources: Flow Research Animals, Inc., Dublin, Va.; Charles River Breeding Laboratories, Wilmington, Mass.; Laboratory Supply Company, Indianapolis, Ind.; and Lionel Strong Foundation, San Diego, Calif.
Three to five mice were sacrificed by cervical dislocation and the spleens aseptically removed. Pooled spleens were minced and teased with sterile forceps; then strained through a double layer of nylon mesh. The cell suspension was washed once with 15 ml of RPMI 1640 supplemented with 5% fetal calf serum and antibiotics. Cells were cultured at a concentration of 10^6 cells/0.1 ml/well in micro-plates. Cultures were incubated in the presence or absence of mitogen in a humidified atmosphere containing 5% CO2 for 48 hours. The test compound was added to cultures at various concentrations concommitant with mitogen.
Proliferation was assayed by the degree of incorporation of 1.0 μCi of [^3 H] thymidine over an 18 hour incubation period. Cultures were harvested by a MASH unit (Otto Hiller Co., Madison, Wisconsin) and thymidine incorporation was assayed by liquid scintillation spectrometry. Cultures were performed in triplicate and data are expressed as means plus or minus the strandard error of the experimental means. Drug stimulation indices over control values were also calculated and portrayed graphically.

Test [4] deals with human peripheral blood lymphocytes. The experiment in a line: Mitogen Induced (PHA) Human Lymphocyte Proliferation.
Test [5] concerns guinea pig peritoneal macrophages. In words: Lymphokine Induced (MMF) Guinea Pig Macrophage Proliferation.
Source text: as §1
3. The macrophage represents a subpopulation of white blood cells which is an important component of the immune system in control of both cellular and humoral immunity. The assay system described below evaluates the substances studied as potentiators of macrophage function.
Phytohemagglutinin(PHA) (HA-17) was purchased from Burroughs Wellcome. A preparation containing Macrophage Mitogen Factor (MMF) and Macrophage Activating Factor (MAF) was prepared from antigen-stimulated immune lymph node lymphocytes (guinea pig) as previously described by Hadden et al, Nature 257, 483-485 (1975). […] The active fraction was employed in both the proliferation and activation assays.
Ficoll-hypaque purified human peripheral blood lymphocytes were prepared and PHA-induced lymphocyte proliferation was assayed by the incorporation of tritiated thymidine as described in Hadden et al, Cell. Immunol. 20, 98-103 (1975). Each compound was analyzed in the presence of suboptimal, optimal and supraoptimal concentrations of PHA (0.001, 0.01, 0.1 units/ml respectively). Paraffin oil-induced guinea pig peritoneal macrophages were prepared and incubated as monolayer culture (>98% pure macrophages). Lymphokine (MMF)-induced proliferation was assayed by the incorporation of triturated thymidine at 3 and 5 days of culture as described, Hadden et al, Nature 257, 483-485 (1975). Lymphokine (MAF)-induced macrophage activation to kill Listeria monocytogenes following 5 days of culture in the presence or absence of MAF was performed during a 6 hour period as described in Hadden and England, Immunopharmacology, pages 87-100 (Plenum Press, 1977). Phagocytosis was quantitated during a 20-minute exposure to Listeria monocytogenes by counting the number of macrophages containing bacteria and the number of bacteria per phagocytic cell on gram stained monolayers in Labtek chambers. Intracellular killing of bacteria was evaluated by counting the number of cells containing bacteria and the number of bacteria/cell 6 hours after the initial 20 minute exposure. Parallel experiments in which macrophages were lysed and intracellular bacteria were cultured confirm the validity of bacterial activity determined by this manner in this sytem. The drugs were employed in each of the three systems over serial log concentration range in triplicate in the presence and absence of mitogen or lymphokine. Each type of experiment was performed at least three times. Previous experiments indicate a parallelism of response to pharmacologic modulation in the proliferation and activation assays.

Turning to `CC(CO)n1cnc2c(N)ncnc21` (centres unmarked) [NPT 15434], the “% Inhibition of Hemadsorption Foci” value was found to be 41% in test [1] (Conc. 10-100 μg/ml) and 62% in test [1] (Conc. >100 μg/ml, listed as 15434). For the same compound, the “DIP.PAcBA potentiation of Anti-Influenza activity” value in test [2] is reported as “Yes”.
As to `O=c1[nH]cnc2c1ncn2CCO` [NPT 15425, 9-HYDROXYETHYL HYPOXANTHINE], the results for the “Maximum Percent Change, Mitogen Induced (Con A) Mouse Lymph. Prolif.” value in test [3] (1.0-10) and in test [3] (.01-1.0) were 0% and 11%, respectively. Besides, the “Maximum Percent Change, Mitogen Induced (PHA) Human Lymph. Prolif.” value in test [4] (1.0-10) is 0%; in test [4] (10-100), 0%; in test [4] (.01-1.0), 100%.
Take `CC(CO)n1cnc2c(=O)[nH]cnc21` (centres unmarked) [NPT 15443, 9-(1-HYDROXY-2-PROPYL)HYPOXANTHINE]: the figures for the “Maximum Percent Change, Mitogen Induced (Con A) Mouse Lymph. Prolif.” value in test [3] (1.0-10), in test [3] (10-100) and in test [3] (.01-1.0) were “+27%”, “+27%” and “+17%”, respectively. In addition, the results for the “Maximum Percent Change, Lymphokine Induced (MMF) Guinea Pig Mac. Prolif.” value in test [5] (1.0-10) and in test [5] (.01-1.0) were 0% and “+20%”, respectively. Moreover, the “Maximum Percent Change, Mitogen Induced (PHA) Human Lymph. Prolif.” value in test [4] (1.0-10) is on record as “+13%”; in test [4] (10-100) it was 0%; in test [4] (.01-1.0) it was 0%. Also, the “% Inhibition of Hemadsorption Foci” value in test [1] (Conc. 10-100 μg/ml, listed as 15443) is given as 0%; in test [1] (Conc. >100 μg/ml, listed as 15443), 0%.
As for `CC(O)Cn1cnc2c(=O)[nH]cnc21` (centres unmarked) [NPT 15447], the “% Inhibition of Hemadsorption Foci” value in test [1] (Conc. 10-100 μg/ml, listed as 15447) was 26%; in test [1] (Conc. <10 μg/ml, listed as 15447), 10%; in test [1] (Conc. >100 μg/ml, listed as 15447), 34%. Further, the “DIP.PAcBA potentiation of Anti-Influenza activity” value in test [2] is “Yes”.
For `CC(O)Cn1cnc2c(N)ncnc21` (centres unmarked) [NPT 15431, 9-(2-HYDROXY-1-PROPYL)ADENINE], the “Maximum Percent Change, Mitogen Induced (Con A) Mouse Lymph. Prolif.” value in test [3] (1.0-10) is -27%; in test [3] (10-100) it was -47%; in test [3] (.01-1.0), -15%. For the same compound, the “Maximum Percent Change, Mitogen Induced (PHA) Human Lymph. Prolif.” value in test [4] (1.0-10), in test [4] (10-100) and in test [4] (.01-1.0) was 0% in each case. The “% Inhibition of Hemadsorption Foci” value is on record as 22% in test [1] (Conc. 10-100 μg/ml, listed as 15431) and 0% in test [1] (Conc. >100 μg/ml, listed as 15431).
For `CC(O)Cn1cnc2c(=O)[nH]cnc21` (centres unmarked) [NPT 15446, 9-(2-HYDROXY-1-PROPYL)HYDROXANTHINE], the “Maximum Percent Change, Mitogen Induced (Con A) Mouse Lymph. Prolif.” value in test [3] (1.0-10) is 12%; in test [3] (10-100), 0%; in test [3] (.01-1.0) it was 6%. Moreover, the “Maximum Percent Change, Lymphokine Induced (MMF) Guinea Pig Mac. Prolif.” value in test [5] (1.0-10), in test [5] (10-100) and in test [5] (.01-1.0) was 0% in each case. The “Maximum Percent Change, Mitogen Induced (PHA) Human Lymph. Prolif.” value in test [4] (1.0-10), in test [4] (10-100) and in test [4] (.01-1.0) was 0% each time. Besides, the “% Inhibition of Hemadsorption Foci” value in test [1] (Conc. 10-100 μg/ml, listed as 15446) was found to be 0%; in test [1] (Conc. <10 μg/ml, listed as 15446), 2%; in test [1] (Conc. >100 μg/ml, listed as 15446), 0%.
Turning to `CC(CO)n1cnc2c(Cl)ncnc21` (centres unmarked) [NPT 15423, 9-(1-HYDROXY-2-PROPANE)-6-CHLOROPURINE], in test [1] (Influenza A virus, Conc. 10-100 μg/ml, read-out: % Inhibition of Hemadsorption Foci), the inhibition was determined as 13%.
On to `CC(=O)Nc1ccc(C(=O)O)cc1.CC(O)CN(C)C` [compound 15110, dimethylamino-2-propanol-p-acetamido benzoate, reference compound], for which the “% Inhibition of Hemadsorption Foci” value worked out at 0% in test [1] (Conc. 10-100 μg/ml), 0% in test [1] (Conc. <10 μg/ml) and 20% in test [1] (Conc. >100 μg/ml).
On to `CC(CO)n1cnc2c(N)ncnc21` (centres unmarked) [NPT 15433, 9-(1-HYDROXY-2-PROPYL)ADENINE], for which the “Maximum Percent Change, Mitogen Induced (Con A) Mouse Lymph. Prolif.” value in test [3] (1.0-10) is -23%; in test [3] (10-100) it was -65%; in test [3] (.01-1.0) it was “+15%”. In addition, the “Maximum Percent Change, Mitogen Induced (PHA) Human Lymph. Prolif.” value is on record as 0% in test [4] (1.0-10), -50% in test [4] (10-100) and 53% in test [4] (.01-1.0). Besides, the “% Inhibition of Hemadsorption Foci” value in test [1] (Conc. >100 μg/ml, listed as 15433) worked out at 0%.
